Data reported in US11118227B2, “Methods of identifying agents having neuroprotective or anti-oxidant activity for regulating mitochondrial function” (THE ROYAL VETERINARY COLLEGE, priority 2015, dated 2021).
Entries after “also recorded” stand apart in the source; their conditions may differ.

Assays:
TSPO mRNA = experiment: RT-PCR of TSPO mRNA levels in MEF cells; assay type: cell-based, mouse; settings: 24 h, PMI (10 μM) or sulforaphane (1 μM), vs control
Method: (D) RT-PCR analysis for estimation of TSPO mRNA levels in MEFs following treatment with DMSO, PMI (10 μM) and/or sulforaphane (1 μM). Values are presented as arbitrary units normalized to 18s RNA levels for each sample, n≥3.
(§1) TSPO has been recently described as a modulator of mitophagy (Gatliff et al., 2014). We were therefore interested to examine if PMI and sulforaphane alter its accumulation on Mitochondria as well as its transcription levels FIG. 6E.

PARK2 [1] = experiment: Live imaging of YFP-PARK2 translocation in HeLa cells co-transfected with mt-RFP and YFP-PARK2; assay type: cell-based; settings: for time of FCCP treatment to almost complete co-localisation of PARK2 in mitochondria: YFP-PARK2; for time of FCCP treatment at which PARK2 translocation was initiated: YFP-PARK2, pre- or co-treated
PARK2 [2] = experiment: Immunocytochemistry of FCCP-induced PARK2 translocation in MEF cells; assay type: cell-based, mouse; settings: 24 hr treatment then FCCP (20 μM) 4 hr, vs vehicle control, FIG. 4E
Method: (E) Representative images of PARK2 localization in MEF cells treated with DMSO vehicle control or 1 μM sulforaphane and/or 10 μM PMI for 24 hr, before and after treatment with FCCP (20 μM) for 4 hr. Scale bar represents 10 μm. A magnification of the merge images is shown in areas demarcated by the white box.

p62 [3] = settings: MEF cells, 24 h, 1 μM sulforaphane
Method: (A) Representative images of P62 localization in MEF cells treated with DMSO vehicle control, or 1 μM sulforaphane and/or 10 μM PMI for 24 hr. Scale bar represents 10 μm. A magnification of the merge images is shown in areas demarcated by the white box. […].
(§2) The levels and localisation of p62 in MEF cells were then examined by immunoblotting (FIG. 3A).

PARK2 [4] = experiment: Western blot of PARK2 in mitochondrial fractions of MEF cells (basal conditions); assay type: cell-based, mouse; settings: 24 h; for levels of PARK2 in mitochondrial fractions: basal, vs vehicle control, FIG. 4A-B
Excerpt: We therefore examined the ability of PARK2 to translocate to mitochondria either under basal conditions or after Carbonyl cyanide-4-(trifluoromethoxy)phenylhydrazone (FCCP an ionophore) treatment.

MEF cells [5] = experiment: Confocal imaging of colocalisation of mitochondria and LC-3 in MEF cells; assay type: cell-based, mouse; settings: 24 hr; for mitochondrial LC3 colocalisation (mitophagy): 1 μM sulforaphane or 10 μM PMI, FIG. 2D
Method: (D) Representative images of LC3 localization in MEF cells treated with DMSO vehicle control, or 1 μM sulforaphane and/or 10 μM PMI for 24 hr. Scale bar represents 10 μm. A magnification of the merge images is shown in areas demarcated by the white box.
To investigate the effects of sulforaphane in mitophagy, we examined the colocalisation of mitochondria and LC-3 in MEF cells using high-resolution confocal imaging (FIG. 2D).

MEF cells [6] = experiment: Western blot of mitochondrial protein levels (MTCO-1, β-subunit) in MEF cells; assay type: cell-based, mouse; settings: 24 h; for PMI (Nrf2)-induced reduction of mitochondrial protein levels, on co-administration of sulforaphane: 10 μM PMI & 1 μM sulforaphane; for mitochondrial network / key mitochondrial protein levels by western blot: vs untreated cells
Method: [β-actin is shown as a loading control.
B-actin is shown as a loading control.
(§3) B-actin is shown as a loading control. […].
(§4) (A) Western blot to compare β-subunit, MTCO-1 and TSPO levels in MEFs treated with either DMSO vehicle control, or sulforaphane (1 μM), or PMI (10 μM) either with or without co-administration of UO126 (10 μM) for 24 h. B-actin is shown as a loading control.

TSPO [7] = experiment: Immunoblotting of TSPO levels in MEF cells; assay type: cell-based, mouse; settings: 24 h, 1 μM sulforaphane or 10 μM PMI, vs control
Method: as §4
(B) Graph show MTCO-1:β-actin (B), β-subunit:β-actin (C), TSPO:β-actin ratio band density analysis, n=3.
as §1

HeLa cells = experiment: Western blot of mitochondrial proteins (mitophagy) in HeLa cells; assay type: cell-based; settings: HeLa cells (PARK2 null), after 7 h and 24 h
Excerpt: as §3

MEF cells [8] = settings: 24 h, 1 μM sulforaphane or 10 μM PMI, previously reported work (East et al., 2014), FIG. 1C; cited from earlier work
TSPO [9] = experiment: TSPO expression in PARK2 null cells (HeLa); assay type: cell-based
MEF cells [10] = experiment: Western blot of mitochondrial protein ubiquitination in mitochondrial fractions of MEF cells; assay type: cell-based, mouse; settings: 24 h, FIG. 3B
Excerpt: (B) Western blot of mitochondrial fractions, highlighting mitochondrial ubiquitination in control or sulforaphane and/or PMI-treated MEF cells. B-subunit is shown as a loading control; n=2.
as §2

TSPO [11] = experiment: Immunofluorescence and immunoblot of TSPO in SHY-5Y cells treated with PD toxins; assay type: cell-based
Excerpt: a. Representative immunofluorescence of TSPO in SHY-5Y Cells. Panels b and c: Immunoblot analysis of TSPO expression pattern and ATPB5 in SHY-5Y Cells treated with MPP^+ and 6-OHD.

P62 [12] = settings: East et al 2014, cited from earlier work
[13] = target: T1, human Keap1 Kelch protein (Homo sapiens, UniProt Q14145); experiment: Biochemical experiments on the Keap1-Nrf2 protein-protein interaction with human Keap1 Kelch protein
T1 construct: human Keap1 Kelch protein
Method: To confirm the mode of action of PMI, a series of biochemical experiments were conducted with human Keap1 Kelch protein.

T1 sequence (Q14145 321-609 limits assumed): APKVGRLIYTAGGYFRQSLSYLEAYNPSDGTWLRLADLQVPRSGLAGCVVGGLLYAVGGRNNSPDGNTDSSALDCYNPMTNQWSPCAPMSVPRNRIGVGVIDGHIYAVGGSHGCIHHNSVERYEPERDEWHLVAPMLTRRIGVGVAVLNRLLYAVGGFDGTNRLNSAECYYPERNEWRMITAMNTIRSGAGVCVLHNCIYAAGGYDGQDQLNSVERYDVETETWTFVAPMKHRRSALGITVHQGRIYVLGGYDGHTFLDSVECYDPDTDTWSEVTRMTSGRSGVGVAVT

Structure (SMILES)	levels of TSPO mRNA (RT-PCR) (TSPO mRNA)	time of FCCP treatment to almost complete co-localisation of PARK2 in mitochondria (PARK2 [1])	time of FCCP treatment at which PARK2 translocation was initiated (PARK2 [1])	FCCP-induced PARK2 translocation (PARK2 [2])	levels of PARK2 in mitochondrial fractions (PARK2 [4])	mitochondrial LC3 colocalisation (mitophagy) (MEF cells [5])	mitochondrial network / key mitochondrial protein levels by western blot (MEF cells [6])	levels of TSPO by immunoblotting (TSPO [7])	induction of mitophagy (mitochondrial protein levels) (HeLa cells)	expression of TSPO (TSPO [9])	TSPO expression (TSPO [11])	other results
C[S+]([O-])CCCCN=C=S (stereo not shown) [sulforaphane]	statistically significant increase	approximately 60 mins	30 min	no statistically significant differences	reduced compared to the vehicle control	no induction of mitophagy was observed	no significant differences	no significant differences were observed	induction of mitophagy was observed	does not affect the expression of TSPO		levels of p62 in the cytosol (p62 [3]): increased levels of p62 in the cytosol compared to control; translocation of p62 to mitochondria (p62 [3]): impaired and significantly reduced compared to basal conditions; mitochondrial LC3 colocalisation attributed to PMI, on addition of sulforaphane (MEF cells [5]; 10 μM PMI plus 1 μM sulforaphane): abolished; PMI (Nrf2)-induced reduction of mitochondrial protein levels, on co-administration of sulforaphane (MEF cells [6]): significant normalization of the mitochondrial protein levels; PMI (Nrf2)-induced reduction of mitochondrial protein levels, on co-administration of sulforaphane (MEF cells [6]; listed as Sulforaphane): inhibits the Nrf2-induced reduction of mitochondrial protein levels; levels of TSPO by immunoblotting (TSPO [7]; listed as Sulforaphane): does not affect the expression of TSPO; mitochondrial proteins (MTCO-1) by Western blot (MEF cells [8]): an increase in mitochondrial proteins; PMI-induced mitochondrial ubiquitination, on co-administration of sulforaphane (MEF cells [10]; PMI plus sulforaphane): abolished the effect attributed to PMI
C[n+]1ccc(-c2ccccc2)cc1 [MPP^+]											upregulate TSPO	
O=[N+]([O-])c1cccc(-c2cn(-c3cccc(I)c3)nn2)c1 [PMI]	reduced compared to control	approximately 60 mins	30 min	no statistically significant differences	no statistically significant differences	significantly increased compared to untreated cells	reduced mitochondrial network	reduction in the levels of TSPO; also recorded: decreases TSPO levels in MEFs	induction of mitophagy was observed	but not in the cells in which PARK2 is not expressioned such as HeLa cells		sulforaphane-reduced PARK2 activity, on addition of PMI (PARK2 [4]; sulforaphane plus PMI): did not alter the reduced activity of PARK2; P62 expression (P62 [12]): upregulates P62 via stabilization of Nrf2; mitophagy (P62 [12]): promotes mitophagy; toxic effects on cells (P62 [12]; at the concentrations used in the assays): does not mediate any apparent toxic effects on cells; degradation of the Keap1 Kelch protein [13]: without causing a degradation of the Keap1 Kelch protein; disruption of the protein-protein interaction between Keap1 and Nrf2 [13]: able to disrupt the protein-protein interaction between Keap1 and Nrf2 in a dose-dependent manner; ubiquitination in mitochondrial fractions (MEF cells [10]; vs vehicle control): increased ubiquitination
NCCc1cc(O)c(O)cc1O [6-HOD]											upregulate TSPO	
